# Reference: the supplement of paper PMC10307832
# What was measured:
# Experiment in all cases: relative viability (nuclei count vs DMSO), 5 days (fraction); higher = more cells survive
# HARA = tested on: HARA
# In short: (§1)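 Lung cancer cell lines, seeded in 1536-well plates, were treated the following day by pin tool with a single drug or with five library-drug doses (not always all listed) in √10 steps on top of a fixed anchor-drug dose. Cells were fixed and nuclei stained in one step after 5 days, and nuclei were counted. Relative viability is the nuclei count for treated wells divided by that for vehicle wells, reported as medians of duplicate plates.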
# NCI-H1975 = tested on: NCI-H1975
# In short: as §1
# NCI-H2126 = tested on: NCI-H2126
# In short: as §1
# NCI-H1666 = tested on: NCI-H1666
# In short: as §1
# RERF-LC-KJ = tested on: RERF-LC-KJ
# In short: as §1
# NCI-H1651 = tested on: NCI-H1651
# In short: as §1
# NCI-H2085 = tested on: NCI-H2085
# In short: as §1
# ABC-1 = tested on: ABC-1
# In short: as §1
# NCI-H1734 = tested on: NCI-H1734
# In short: as §1
# NCI-H838 = tested on: NCI-H838
# In short: as §1
# NCI-H520 = tested on: NCI-H520
# In short: as §1
# SW 900 = tested on: SW 900
# In short: as §1
# A-427 = tested on: A-427
# In short: as §1
# NCI-H460 = tested on: NCI-H460
# In short: as §1
# NCI-H661 = tested on: NCI-H661
# In short: as §1
# LCLC-103H = tested on: LCLC-103H
# In short: as §1
# LOU-NH91 = tested on: LOU-NH91
# In short: as §1
# NCI-H647 = tested on: NCI-H647
# In short: as §1
# NCI-H727 = tested on: NCI-H727
# In short: as §1
# BEN = tested on: BEN
# In short: as §1
# CAL-12T = tested on: CAL-12T
# In short: as §1
# NCI-H1944 = tested on: NCI-H1944
# In short: as §1
smiles,measurement,setting,value
Cc1cn(-c2cc(NC(=O)c3ccc(C)c(Nc4nccc(-c5cccnc5)n4)c3)cc(C(F)(F)F)c2)cn1 [Nilotinib] + CC(=O)c1c(C)c2cnc(Nc3ccc(N4CCNCC4)cn3)nc2n(C2CCCC2)c1=O [Palbociclib] (partner 0.5 µM),relative viability,HARA; first compound 0.001 µM,0.287
same,relative viability,HARA; first compound 0.003162 µM,0.219
same,relative viability,HARA; first compound 0.01 µM,0.246
same,relative viability,HARA; first compound 0.03162 µM,0.251
same,relative viability,HARA; first compound 0.1 µM,0.225
same,relative viability,NCI-H1975; first compound 0.001 µM,0.498
same,relative viability,NCI-H1975; first compound 0.003162 µM,0.608
same,relative viability,NCI-H1975; first compound 0.01 µM,0.653
same,relative viability,NCI-H1975; first compound 0.03162 µM,0.345
same,relative viability,NCI-H1975; first compound 0.1 µM,0.226
same,relative viability,NCI-H2126; first compound 0.001 µM,0.337
same,relative viability,NCI-H2126; first compound 0.003162 µM,0.333
same,relative viability,NCI-H2126; first compound 0.01 µM,0.382
same,relative viability,NCI-H2126; first compound 0.03162 µM,0.321
same,relative viability,NCI-H2126; first compound 0.1 µM,0.346
same,relative viability,NCI-H1666; first compound 0.001 µM,0.62
same,relative viability,NCI-H1666; first compound 0.003162 µM,0.673
same,relative viability,NCI-H1666; first compound 0.01 µM,0.588
same,relative viability,NCI-H1666; first compound 0.03162 µM,0.583
same,relative viability,NCI-H1666; first compound 0.1 µM,0.65
same,relative viability,RERF-LC-KJ; first compound 0.001 µM,0.965
same,relative viability,RERF-LC-KJ; first compound 0.003162 µM,1.11
same,relative viability,RERF-LC-KJ; first compound 0.01 µM,1.21
same,relative viability,RERF-LC-KJ; first compound 0.03162 µM,0.896
same,relative viability,RERF-LC-KJ; first compound 0.1 µM,1.03
same,relative viability,NCI-H1651; first compound 0.001 µM,0.555
same,relative viability,NCI-H1651; first compound 0.003162 µM,0.601
same,relative viability,NCI-H1651; first compound 0.01 µM,0.616
same,relative viability,NCI-H1651; first compound 0.03162 µM,0.448
same,relative viability,NCI-H1651; first compound 0.1 µM,0.562
same,relative viability,NCI-H2085; first compound 0.001 µM,0.525
same,relative viability,NCI-H2085; first compound 0.003162 µM,0.489
same,relative viability,NCI-H2085; first compound 0.01 µM,0.536
same,relative viability,NCI-H2085; first compound 0.03162 µM,0.498
same,relative viability,NCI-H2085; first compound 0.1 µM,0.393
same,relative viability,ABC-1; first compound 0.001 µM,0.634
same,relative viability,ABC-1; first compound 0.003162 µM,0.697
same,relative viability,ABC-1; first compound 0.01 µM,0.775
same,relative viability,ABC-1; first compound 0.03162 µM,0.699
same,relative viability,ABC-1; first compound 0.1 µM,0.466
same,relative viability,NCI-H1734; first compound 0.001 µM,0.333
same,relative viability,NCI-H1734; first compound 0.003162 µM,0.36
same,relative viability,NCI-H1734; first compound 0.01 µM,0.372
same,relative viability,NCI-H1734; first compound 0.03162 µM,0.312
same,relative viability,NCI-H1734; first compound 0.1 µM,0.317
same,relative viability,NCI-H838; first compound 0.001 µM,0.215
same,relative viability,NCI-H838; first compound 0.003162 µM,0.23
same,relative viability,NCI-H838; first compound 0.01 µM,0.188
same,relative viability,NCI-H838; first compound 0.03162 µM,0.198
same,relative viability,NCI-H838; first compound 0.1 µM,0.201
same,relative viability,NCI-H520; first compound 0.001 µM,0.21
same,relative viability,NCI-H520; first compound 0.003162 µM,0.219
same,relative viability,NCI-H520; first compound 0.01 µM,0.241
same,relative viability,NCI-H520; first compound 0.03162 µM,0.218
same,relative viability,NCI-H520; first compound 0.1 µM,0.225
same,relative viability,SW 900; first compound 0.003162 µM,0.47
same,relative viability,SW 900; first compound 0.01 µM,0.524
same,relative viability,SW 900; first compound 0.03162 µM,0.455
same,relative viability,SW 900; first compound 0.1 µM,0.476
same,relative viability,A-427; first compound 0.001 µM,0.51
same,relative viability,A-427; first compound 0.003162 µM,0.493
same,relative viability,A-427; first compound 0.01 µM,0.524
same,relative viability,A-427; first compound 0.03162 µM,0.552
same,relative viability,A-427; first compound 0.1 µM,0.466
same,relative viability,NCI-H460; first compound 0.001 µM,0.101
same,relative viability,NCI-H460; first compound 0.003162 µM,0.0788
same,relative viability,NCI-H460; first compound 0.01 µM,0.144
same,relative viability,NCI-H460; first compound 0.03162 µM,0.148
same,relative viability,NCI-H460; first compound 0.1 µM,0.134
same,relative viability,NCI-H661; first compound 0.001 µM,0.438
same,relative viability,NCI-H661; first compound 0.003162 µM,0.396
same,relative viability,NCI-H661; first compound 0.01 µM,0.404
same,relative viability,NCI-H661; first compound 0.03162 µM,0.444
same,relative viability,NCI-H661; first compound 0.1 µM,0.361
same,relative viability,LCLC-103H; first compound 0.001 µM,0.425
same,relative viability,LCLC-103H; first compound 0.003162 µM,0.403
same,relative viability,LCLC-103H; first compound 0.01 µM,0.46
same,relative viability,LCLC-103H; first compound 0.03162 µM,0.489
same,relative viability,LCLC-103H; first compound 0.1 µM,0.44
same,relative viability,LOU-NH91; first compound 0.001 µM,0.51
same,relative viability,LOU-NH91; first compound 0.003162 µM,0.543
same,relative viability,LOU-NH91; first compound 0.01 µM,0.48
same,relative viability,LOU-NH91; first compound 0.03162 µM,0.535
same,relative viability,LOU-NH91; first compound 0.1 µM,0.586
same,relative viability,NCI-H647; first compound 0.001 µM,0.384
same,relative viability,NCI-H647; first compound 0.003162 µM,0.382
same,relative viability,NCI-H647; first compound 0.01 µM,0.468
same,relative viability,NCI-H647; first compound 0.03162 µM,0.266
same,relative viability,NCI-H647; first compound 0.1 µM,0.26
same,relative viability,NCI-H727; first compound 0.001 µM,0.667
same,relative viability,NCI-H727; first compound 0.003162 µM,0.69
same,relative viability,NCI-H727; first compound 0.01 µM,0.71
same,relative viability,NCI-H727; first compound 0.03162 µM,0.593
same,relative viability,NCI-H727; first compound 0.1 µM,0.633
same,relative viability,BEN; first compound 0.001 µM,0.484
same,relative viability,BEN; first compound 0.003162 µM,0.489
same,relative viability,BEN; first compound 0.01 µM,0.465
same,relative viability,BEN; first compound 0.03162 µM,0.548
same,relative viability,BEN; first compound 0.1 µM,0.503
same,relative viability,CAL-12T; first compound 0.001 µM,0.593
same,relative viability,CAL-12T; first compound 0.003162 µM,0.438
same,relative viability,CAL-12T; first compound 0.01 µM,0.473
same,relative viability,CAL-12T; first compound 0.03162 µM,0.357
same,relative viability,CAL-12T; first compound 0.1 µM,0.299
same,relative viability,NCI-H1944; first compound 0.001 µM,0.279
same,relative viability,NCI-H1944; first compound 0.003162 µM,0.335
same,relative viability,NCI-H1944; first compound 0.01 µM,0.372
same,relative viability,NCI-H1944; first compound 0.03162 µM,0.365
same,relative viability,NCI-H1944; first compound 0.1 µM,0.378
